The text below walks through data of US20070117770A1, “Human ribosomal DNA (rDNA) and ribosomal RNA (rRNA) nucleic acids and uses thereof” (Cylene Pharmaceuticals, Inc., priority 2005, published 2007).

The target in assay [1] is Flt1(h) (Homo sapiens, UniProt P17948). The assay can be described thus: Protein kinase inhibition assay. The settings on record: read-out: percent residual activity of Flt1(h). Type of assay: biochemical. As for the experimental part:
(§1) Certain compounds were tested for activity in protein kinase inhibition assays. All substrates were dissolved and diluted to working stocks in de-ionized water, apart from histone H1 (10× working stock in 20 mM MOPS pH 7.0), PDKtide (10× working stock in 50 mM Tris pH 7.0) ATF2 (which is typically stored at a 20× working stock in 50 mM Tris pH 7.5, 150 mM NaCl, 0.1 mM EGTA, 0.03% Brij-35, 50% glycerol, 1 mM benzamidine, 0.2 mM PMSF and 0.1% R-mercaptoethanol), KKLNRTLSFAEPG (SEQ ID NO:203) and RRRLSFAEPG (SEQ ID NO:204) (50 mM HEPES pH 7.4) and GGEEEEYFELVKKKK (SEQ ID NO:205) (20 mM MOPS pH 7.0). All kinases were pre-diluted to a 10× working concentration prior to addition into the assay. The composition of the dilution buffer for each kinase is detailed below.
(§2) In a final reaction volume of 25 μl, Flt1 (h) (5-10 mU) is incubated with 8 mM MOPS pH 7.0, 0.2 mM EDTA, 250 μM KKKSPGEYVNIEFG (SEQ ID NO:207), 10 mM MgAcetate and [gamma-33P-ATP] (specific activity approx. 500 cpm/pmol, concentration as required). The reaction is initiated by the addition of the MgATP mix. After incubation for 40 minutes at room temperature, the reaction is stopped by the addition of 5 μl of a 3% phosphoric acid solution. 10 μl of the reaction is then spotted onto a P30 filtermat and washed three times for 5 minutes in 75 mM phosphoric acid and once in methanol prior to drying and scintillation counting.

The target of assay [2] is Met(h) (Homo sapiens, UniProt P08581). The assay can be described thus: Protein kinase inhibition assay. Type of assay: biochemical. The settings on record: read-out: percent residual activity of Met(h). As for the experimental part: as §1
Sequence of Met(h) (P08581 25-1390): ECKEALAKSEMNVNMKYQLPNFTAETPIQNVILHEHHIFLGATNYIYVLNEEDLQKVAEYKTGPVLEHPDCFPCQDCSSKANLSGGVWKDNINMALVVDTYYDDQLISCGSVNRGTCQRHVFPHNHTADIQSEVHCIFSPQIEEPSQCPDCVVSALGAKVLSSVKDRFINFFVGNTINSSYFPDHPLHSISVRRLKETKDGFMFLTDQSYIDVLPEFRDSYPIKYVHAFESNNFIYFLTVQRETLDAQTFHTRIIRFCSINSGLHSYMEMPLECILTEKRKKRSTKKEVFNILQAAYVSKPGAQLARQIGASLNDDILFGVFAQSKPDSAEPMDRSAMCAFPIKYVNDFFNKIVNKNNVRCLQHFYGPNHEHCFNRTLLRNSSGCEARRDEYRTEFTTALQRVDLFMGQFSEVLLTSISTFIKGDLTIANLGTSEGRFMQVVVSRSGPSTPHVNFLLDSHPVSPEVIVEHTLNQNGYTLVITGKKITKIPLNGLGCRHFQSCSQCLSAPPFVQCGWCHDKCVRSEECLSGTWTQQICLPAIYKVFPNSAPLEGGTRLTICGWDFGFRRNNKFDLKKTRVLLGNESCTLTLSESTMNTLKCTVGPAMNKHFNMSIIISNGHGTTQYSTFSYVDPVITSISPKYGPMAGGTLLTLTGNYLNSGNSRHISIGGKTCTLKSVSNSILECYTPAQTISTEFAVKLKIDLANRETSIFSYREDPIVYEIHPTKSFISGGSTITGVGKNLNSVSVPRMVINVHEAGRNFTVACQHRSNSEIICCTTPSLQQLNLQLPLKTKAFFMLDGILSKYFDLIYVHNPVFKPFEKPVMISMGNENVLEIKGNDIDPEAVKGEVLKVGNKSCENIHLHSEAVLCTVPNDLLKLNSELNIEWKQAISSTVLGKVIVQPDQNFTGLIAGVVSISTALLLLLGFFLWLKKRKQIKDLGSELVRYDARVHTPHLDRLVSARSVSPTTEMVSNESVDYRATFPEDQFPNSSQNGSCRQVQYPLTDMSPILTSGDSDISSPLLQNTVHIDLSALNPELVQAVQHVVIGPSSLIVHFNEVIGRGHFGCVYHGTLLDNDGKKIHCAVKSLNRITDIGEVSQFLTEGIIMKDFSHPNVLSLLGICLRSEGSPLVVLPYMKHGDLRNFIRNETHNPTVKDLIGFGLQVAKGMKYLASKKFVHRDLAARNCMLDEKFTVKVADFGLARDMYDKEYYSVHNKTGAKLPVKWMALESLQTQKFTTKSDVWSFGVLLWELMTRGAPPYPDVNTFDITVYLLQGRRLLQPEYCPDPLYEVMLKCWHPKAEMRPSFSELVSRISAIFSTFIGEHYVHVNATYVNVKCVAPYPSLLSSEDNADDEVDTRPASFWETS
as §2, with “25 μl, Met (h) (5-10” for “25 μl, Flt1 (h) (5-10”, “MgAcetate and [y-33P-ATP] (specific activity” for “MgAcetate and [gamma-33P-ATP] (specific activity”, “prior to a drying and” for “prior to drying and”

Assay [3] concerns the target PDGFRα(h) (Homo sapiens, UniProt P16234). The assay can be described thus: Protein kinase inhibition assay. Type of assay: biochemical. The settings on record: read-out: percent residual activity of PDGFRα(h). The method, then: as §1
as §2, with “PDGFRα” for “Flt1”, “0.1 mg/ml poly(Glu, Tyr) 4:1, 10 mM MnCl2,” for “250 μM KKKSPGEYVNIEFG (SEQ ID NO:207),”, “Filtermat A” for “P30 filtermat”

The target in assay [4] is Syk(h) (Homo sapiens, UniProt P43405). The assay can be described thus: Protein kinase inhibition assay. Type of assay: biochemical. The settings on record: read-out: percent residual activity of Syk(h). The method, then: as §1
In a final reaction volume of 25 μl, Syk (h) (5-10 mU) is incubated with 50 mM Tris pH 7.5, 0.1 mM EGTA, 0.1 mM Na3VO4, 0.1% R-mercaptoethanol, 0.1 mg/ml poly(Glu, Tyr) 4:1, 10 mM MgAcetate and [gamma-33P-ATP] (specific activity approx. 500 cpm/pmol, concentration as required). The reaction is initiated by the addition of the MgATP mix. After incubation for 40 minutes at room temperature, the reaction is stopped by the addition of 5 μl of a 3% phosphoric acid solution. […]

Assay [5] has as its system HCT116 cells. The assay can be described thus: Total (nucleolar) RNA synthesis (3H-uridine incorporation). Type of assay: cell-based. On the set-up: 3H-uridine incorporation, time course: unit of the concentration uncertain. The method, then:
(§3) Effects of compound A-1 and compound B-1 on DNA synthesis, RNA synthesis and protein synthesis were determined in HCT116 cells. HCT116 cells were plated overnight at 100,000 cells per mL. Next day cells were treated with increasing amounts of either compound A-1 or compound B-1 followed by one hour incubation with BrdU label (from a BrdU Cell proliferation Assay Kit, Calbiochem) to monitor DNA synthesis; […] of ^3H-uridine to monitor total RNA synthesis; […] of ^3H-methionine to monitor protein synthesis or plain media to monitor RNA Polymerase II-dependent RNA synthesis. DNA synthesis was assessed using a BrdU-ELISA (BrdU Cell proliferation Assay Kit, Calbiochem). To measure total RNA synthesis, total RNA from treated cells was isolated with a RNease kit (QIAGEN), levels of total RNA were assessed with Ribogreen reagent (Invitrogen) and the newly synthesized tritiated RNA was measured in a scintillation Counter (Perkin Elmer). To measure effects on protein synthesis, cells were lysed in a RIPA buffer, and total protein was precipitated with 10% TCA on a glass-filters. Newly synthesized tritiated protein was measured in a scintillation Counter (Perkin Elmer). Effects of drugs on […] RNA synthesis were assessed by monitoring levels of a c-myc mRNA, which has a relatively short half-life of approximately 30 minutes, by Taqman qRT-PCR (ABI).

For assay [6], the system named is HCT116 cells. The assay can be described thus: Protein synthesis (3H-methionine incorporation). The settings on record: at the tested concentrations. In kind it is cell-based. As for the experimental part:
as §3

Sequence of PDGFRα(h) (P16234 24-1089): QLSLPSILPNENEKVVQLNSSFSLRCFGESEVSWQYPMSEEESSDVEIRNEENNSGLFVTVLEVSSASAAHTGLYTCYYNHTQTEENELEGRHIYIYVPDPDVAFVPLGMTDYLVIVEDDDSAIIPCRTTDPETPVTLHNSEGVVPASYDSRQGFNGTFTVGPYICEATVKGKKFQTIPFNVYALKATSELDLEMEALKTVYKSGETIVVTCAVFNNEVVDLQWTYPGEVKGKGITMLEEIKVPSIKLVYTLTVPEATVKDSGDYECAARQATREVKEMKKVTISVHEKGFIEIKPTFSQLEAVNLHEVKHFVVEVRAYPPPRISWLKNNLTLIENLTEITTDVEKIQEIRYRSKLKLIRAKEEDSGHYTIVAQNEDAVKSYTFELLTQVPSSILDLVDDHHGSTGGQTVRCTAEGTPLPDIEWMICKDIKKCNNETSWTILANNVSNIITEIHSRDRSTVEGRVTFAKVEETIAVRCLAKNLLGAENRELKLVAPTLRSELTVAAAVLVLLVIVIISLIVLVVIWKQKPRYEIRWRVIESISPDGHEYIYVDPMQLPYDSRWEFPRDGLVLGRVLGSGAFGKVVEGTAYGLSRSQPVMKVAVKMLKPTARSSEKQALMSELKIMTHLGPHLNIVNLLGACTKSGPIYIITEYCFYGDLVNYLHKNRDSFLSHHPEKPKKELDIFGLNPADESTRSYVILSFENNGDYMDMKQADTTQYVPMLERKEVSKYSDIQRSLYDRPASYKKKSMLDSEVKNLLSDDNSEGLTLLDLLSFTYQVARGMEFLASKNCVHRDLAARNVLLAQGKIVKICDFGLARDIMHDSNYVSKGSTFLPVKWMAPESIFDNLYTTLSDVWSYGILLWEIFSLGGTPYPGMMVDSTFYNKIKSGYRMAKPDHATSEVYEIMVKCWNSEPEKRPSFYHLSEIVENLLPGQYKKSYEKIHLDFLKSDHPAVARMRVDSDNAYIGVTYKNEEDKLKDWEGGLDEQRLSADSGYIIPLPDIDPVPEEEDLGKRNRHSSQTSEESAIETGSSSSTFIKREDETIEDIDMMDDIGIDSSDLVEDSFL
Sequence of Flt1(h) (P17948 27-1338): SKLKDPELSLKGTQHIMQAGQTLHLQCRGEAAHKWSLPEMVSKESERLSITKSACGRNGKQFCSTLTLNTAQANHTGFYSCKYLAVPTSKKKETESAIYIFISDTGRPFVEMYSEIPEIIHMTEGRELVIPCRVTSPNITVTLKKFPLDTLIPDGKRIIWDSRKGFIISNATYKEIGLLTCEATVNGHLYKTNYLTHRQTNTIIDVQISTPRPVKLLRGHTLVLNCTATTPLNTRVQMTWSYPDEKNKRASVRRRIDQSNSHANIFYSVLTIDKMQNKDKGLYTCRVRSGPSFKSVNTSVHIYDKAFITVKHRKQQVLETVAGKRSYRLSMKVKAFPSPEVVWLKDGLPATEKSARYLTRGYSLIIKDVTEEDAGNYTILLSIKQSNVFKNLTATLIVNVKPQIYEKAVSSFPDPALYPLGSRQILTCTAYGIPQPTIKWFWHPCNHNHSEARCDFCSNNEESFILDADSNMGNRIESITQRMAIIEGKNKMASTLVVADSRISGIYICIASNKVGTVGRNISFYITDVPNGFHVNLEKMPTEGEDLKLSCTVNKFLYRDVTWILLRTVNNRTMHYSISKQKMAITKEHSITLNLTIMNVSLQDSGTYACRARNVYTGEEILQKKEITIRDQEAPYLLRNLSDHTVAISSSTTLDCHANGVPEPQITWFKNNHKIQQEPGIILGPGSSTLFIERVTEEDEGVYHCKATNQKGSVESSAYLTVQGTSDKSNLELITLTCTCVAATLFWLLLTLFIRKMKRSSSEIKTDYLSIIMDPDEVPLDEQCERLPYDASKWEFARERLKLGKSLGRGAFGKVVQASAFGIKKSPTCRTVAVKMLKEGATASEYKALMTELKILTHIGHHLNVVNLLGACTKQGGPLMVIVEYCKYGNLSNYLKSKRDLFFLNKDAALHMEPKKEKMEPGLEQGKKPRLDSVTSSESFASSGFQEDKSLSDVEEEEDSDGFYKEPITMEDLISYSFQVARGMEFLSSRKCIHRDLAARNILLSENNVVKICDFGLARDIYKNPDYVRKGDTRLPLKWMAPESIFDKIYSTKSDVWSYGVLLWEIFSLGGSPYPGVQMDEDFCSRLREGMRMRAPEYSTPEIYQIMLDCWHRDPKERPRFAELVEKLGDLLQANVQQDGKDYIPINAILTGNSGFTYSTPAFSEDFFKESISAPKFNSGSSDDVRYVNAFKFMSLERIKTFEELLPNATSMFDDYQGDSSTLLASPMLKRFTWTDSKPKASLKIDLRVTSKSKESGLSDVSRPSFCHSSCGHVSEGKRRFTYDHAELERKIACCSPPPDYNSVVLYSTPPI

As to `CN1CCCC1CCNC(=O)c1cn2c3c(c(N4CCC(c5cnccn5)C4)c(F)cc3c1=O)Oc1cc3ccccc3cc1-2` (centres unmarked) [Compound A-1], the remaining activity at 2.5 µM in assay [1] came out at 78%; in assay [2] it was 132%; in assay [3], 108%; in assay [4], 67%. Also, in assay [5], the concentration that significantly reduced nucleolar RNA synthesis came to 1 µM. In addition, in assay [5] (3 (unit uncertain) for 15 min), the “3H-uridine incorporation, time course” value is on record as “substantially inhibited”. In assay [6], the “effect on protein synthesis” value is listed as “no measureable effect”.

On to `CC(=O)N1CCN(c2ccc3c(=O)c(C(=O)NCCN4CCCC4)c4n(C)c5ccccc5n4c3n2)CC1` [Compound B-1], for which the remaining activity at 2.5 µM in assay [1] was determined as 106%; in assay [2], 115%; in assay [3] it was 106%; in assay [4] it was 111%. Further, the concentration that significantly reduced nucleolar RNA synthesis in assay [5] is 10 µM. Besides, the “3H-uridine incorporation, time course” value in assay [5] (10 (unit uncertain) for 30 min) was “substantially inhibited”. In addition, in assay [6], the “effect on protein synthesis” value is listed as “no measureable effect”.
